# Measured values: patent publication US4088757A, “4'Alpha- and 4'beta-amino-4'-desoxyoleandrins, and pharmaceutical composition containing same” (Beiersdorf Aktiengesellschaft, priority 1976, dated 1978)
# Experiments:
# [1] = format: in vivo; details: cat, intravenous; for preferential route of elimination (in words): tritium-marked drug; for Biliary Elimination: tritium-marked drug in feces; for Biliary Elimination / Renal Elimination: % of activity originally injected; for Renal Elimination: tritium-marked drug in urine
# Protocol: 1. The elimination rate of both drugs in the cat was tested by intravenously injecting a fixed amount of the drugs into the cat and recording the amount of tritium-marked drug appearing in the urine and feces. The results are stated as a percentage of the activity of the tritium-marked glycoside originally injected.
# [2] = test system: papillary muscle of the guinea pig; experiment: inotropic effect on the papillary muscle of the guinea pig in vitro; details: Cavia porcellus, 40% ethanol and 60% water mixture, read-out: ED50 (amount of drug necessary to increase the contractile force of the muscle by 50%)
# Protocol: 2. The inotropic effect of both drugs was tested on the papillary muscle of the guinea pig in vitro. The muscle was connected to a recording device and then placed in a bath of 0.1% solution of the drug to be tested in a mixture of 40% ethanol and 60% water. This solution was gradually diluted with water and a dosage versus contraction graph plotted. The amount of drug necessary to increase the contractile force of the muscle by 50% (ED50) was then calculated.
Structure (SMILES),preferential route of elimination (in words) [1],Biliary Elimination [1],Renal Elimination [1],EC50 [2]
COC1CC(OC2CCC3(C)C(CCC4C3CCC3(C)C(C5=CC(=O)OC5)C(OC(C)=O)CC43O)C2)OC(C)C1N (centres unmarked) [4'-amino-4'-desoxy-oleandrin],preferentially eliminated by the biliary system,11.1%,2.5%,0.13 µg/mL
C[C@H]1O[C@@H](O[C@H]2[C@@H](O)C[C@H](O[C@H]3[C@@H](O)C[C@H](O[C@H]4CC[C@@]5(C)[C@H](CC[C@@H]6[C@@H]5C[C@@H](O)[C@]5(C)[C@@H](C7=CC(=O)OC7)CC[C@]65O)C4)O[C@@H]3C)O[C@@H]2C)C[C@H](O)[C@@H]1O [digoxin],preferentially eliminated by the renal system,4.7%,6.3%,1.1 µg/mL
